Source: patent US7754695B2, “Lipase inhibitors” (Suntory Holdings Limited, priority 2004, dated 2010)
pIC50: −log10 of the molar value.

Target: T1, porcine pancreatic lipase (Sus scrofa, UniProt P00591)
T1 construct: purchased Sigma
T1 sequence (P00591 1-450): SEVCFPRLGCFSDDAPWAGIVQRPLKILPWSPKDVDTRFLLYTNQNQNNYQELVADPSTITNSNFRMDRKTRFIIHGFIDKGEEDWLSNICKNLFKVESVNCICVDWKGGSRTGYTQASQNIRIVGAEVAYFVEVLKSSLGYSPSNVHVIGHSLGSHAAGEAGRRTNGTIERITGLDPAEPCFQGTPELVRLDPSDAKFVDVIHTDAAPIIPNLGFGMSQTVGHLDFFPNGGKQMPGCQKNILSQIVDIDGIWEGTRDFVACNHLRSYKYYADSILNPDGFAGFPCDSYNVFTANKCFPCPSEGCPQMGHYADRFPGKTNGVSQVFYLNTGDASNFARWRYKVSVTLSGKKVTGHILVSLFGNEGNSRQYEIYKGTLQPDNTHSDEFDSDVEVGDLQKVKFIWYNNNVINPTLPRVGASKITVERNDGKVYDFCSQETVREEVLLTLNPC
Experiment: Lipase inhibitory activity measurement (4-UMO fluorescence substrate)
Assay type: biochemical
Conditions: for pIC50: 4-UMO substrate, pH 8.0, 25 degrees, 30 minutes of reaction; for lipase inhibitory activity (in words): summary of Table 1
Description: Lipase activity measurement was carried out by using oleic acid ester of fluorescence 4-methylumbelliferone (4-UMO) as a substrate, and measuring the fluorescence of 4-methylumbelliferone produced by reaction.
Substrate 4-UMO (Sigma) is prepared as 0.1 M solution in DMSO and diluted 1000 times with the buffer mentioned above. Similarly, lipase (porcine pancreatic lipase (Sigma)) is prepared as 400 U/ml solution in the buffer mentioned above and used in enzymatic measurement.
50 μl of 4-UMO buffer solution and 25 μl of distilled water (or sample solution) are placed in 96 well microplate and mixed at 25 degrees, followed by adding 25 μl of lipase buffer solution to start enzyme reaction. After 30 minutes of reaction, 100 μl of 0.1 M citric acid buffer (pH 4.2) was added to terminate the reaction, and fluorescence of 4-methylumbelliferone (excitation wavelength: 355 nm, fluorescence wavelength: 460 nm) produced by the reaction was measured with a fluorescence plate reader (Labsystems, Fluoroskan Asent CF).

Compound	pIC50	lipase inhibitory activity (in words)
O=C(OC[C@H]1OC(OC(=O)c2cc(O)c(O)c(O)c2)[C@H](OC(=O)c2cc(O)c(O)c(O)c2)[C@@H](O)[C@@H]1OC(=O)c1cc(O)c(O)c(O)c1)c1cc(O)c(O)c(O)c1 (some centres unmarked) [1,2,4,6-tetra-GA-Glc (6), 1,2,4,6-tetragalloylglucose]	6.69	showed lipase inhibitory activity
O=C(OCC1OC(OC(=O)c2cc(O)c(O)c(O)c2)C(O)C(O)C1OC(=O)c1cc(O)c(O)c(O)c1)c1cc(O)c(O)c(O)c1 [1,4,6-tri-O-galloyl-D-glucose (4), 1,4,6-tri-O-galloyl-D-glucose]	5.91	showed lipase inhibitory activity
O=C(O)c1cc(O)c(O)c(O)c1 [Galli acid (1), Gallic acid, reference compound]	< 4.30	showed no activity
O=C(O[C@H]1[C@@H]2OC(=O)c3cc(O)c(O)c(O)c3-c3c(cc(O)c(O)c3O)C(=O)OC[C@H]2OC(O)[C@@H]1OC(=O)c1cc(O)c(O)c(O)c1)c1cc(O)c(O)c(O)c1 (some centres unmarked) [Tellimagrandin1 (7), Tellimagrandin 1]	6.90	showed lipase inhibitory activity
O=C(O[C@@H]1O[C@@H]2COC(=O)c3cc(O)c(O)c(O)c3-c3c(cc(O)c(O)c3O)C(=O)O[C@H]2[C@H](OC(=O)c2cc(O)c(O)c(O)c2)[C@H]1OC(=O)c1cc(O)c(O)c(O)c1)c1cc(O)c(O)c(O)c1 [Tellimagrandin2 (8), Tellimagrandin 2]	7.13	showed lipase inhibitory activity

The next lines start with the values.

pIC50	lipase inhibitory activity (in words)	Compound
6.33	showed lipase inhibitory activity	O=C(O[C@@H]1O[C@@H]2COC(=O)c3cc(O)c(O)c(O)c3-c3c(cc(O)c(O)c3O)C(=O)O[C@H]2[C@H](O)[C@H]1O)c1cc(O)c(O)c(O)c1 [strictinin (5), strictinin]
< 4.30	–	O=C(O[C@@H]1C[C@](O)(C(=O)O)C[C@@H](O)[C@H]1O)c1cc(O)c(O)c(O)c1 [theogallin (3), theogallin]
< 4.30	–	O=C(O[C@@H]1O[C@H](CO)[C@@H](O)[C@H](O)[C@H]1O)c1cc(O)c(O)c(O)c1 [β-glucogallin (2), β-glucogallin]
